According to ChEMBL document CHEMBL5352476, “A comprehensive overview of Artemisinin and its derivatives as anticancer agents” (Eur J Med Chem, 2023):

Key:
[1] = Cytotoxicity against human CCD 19Lu cells assessed as inhibition of cell growth; type: toxicity, cell-based
[2] = tested on: Mus musculus; assay: Antitumor activity against human RL95-2 cells xenografted in BALB/c nude mouse assessed as tumor growth inhibition rate at 5.0 mg/kg, ip administered three times a week for 4 weeks relative to control; type: functional; details: RL95-2, 672 h
[3] = tested on: RL95-2; assay: Antiproliferative activity against human RL95-2 cells assessed as inhibition of cell growth by MTT assay; type: functional, cell-based; details: pooled result: one value given for 6 cell lines, strains, targets or settings
[4] = tested on: HepG2; assay: Antiproliferative activity against human HepG2 cells assessed as inhibition of cell growth by MTT assay; type: functional, cell-based
[5] = tested on: HeLa; assay: Antiproliferative activity against human HeLa cells assessed as inhibition of cell growth; type: functional, cell-based
[6] = tested on: HCT-116; assay: Antiproliferative activity against human HCT-116 cells assessed as inhibition of cell growth; type: functional, cell-based
[7] = tested on: MDA-MB-231; assay: Antiproliferative activity against human MDA-MB-231 cells assessed as inhibition of cell growth; type: functional, cell-based
[8] = tested on: SK-BR-3; assay: Antiproliferative activity against human SK-BR-3 cells assessed as inhibition of cell growth; type: functional, cell-based
[9] = tested on: A549; assay: Antiproliferative activity against human A549 cells assessed as inhibition of cell growth incubated for 72 hrs by MTT assay; type: functional, cell-based; details: A549, 72 h
[10] = tested on: HT-29; assay: Antiproliferative activity against human HT-29 cells assessed as inhibition of cell growth incubated for 72 hrs by MTT assay; type: functional, cell-based; details: HT-29, 72 h
[11] = Cytotoxicity against human WI-38 cells assessed as inhibition of cell growth incubated for 72 hrs by MTT assay; type: toxicity, cell-based
[12] = tested on: U-87 MG; assay: Antiproliferative activity against human U-87 MG cells assessed as inhibition of cell growth incubated for 72 hrs by MTT assay; type: functional, cell-based, U-87MG ATCC
[13] = tested on: NCI-H460; assay: Antiproliferative activity against human NCI-H460 cells assessed as inhibition of cell growth incubated for 72 hrs by MTT assay; type: functional, cell-based; details: NCI-H460, 72 h
[14] = tested on: MDA-MB-231; assay: Antiproliferative activity against human MDA-MB-231 cells assessed as inhibition of cell growth incubated for 72 hrs by MTT assay; type: functional, cell-based; details: MDA-MB-231, 72 h
[15] = tested on: HL-60; assay: Antiproliferative activity against human HL-60 cells assessed as inhibition of cell growth incubated for 72 hrs by MTT assay; type: functional, cell-based; details: HL-60, 72 h
[16] = tested on: RPMI-7951; assay: Antiproliferative activity against human RPMI-7951 cells assessed as inhibition of cell growth incubated for 24 hrs by MTT assay; type: functional, cell-based; details: RPMI-7951, 24 h
[17] = tested on: U-87 MG; assay: Antiproliferative activity against human U87 cells assessed as inhibition of cell growth incubated for 72 hrs by MTT assay; type: functional, cell-based, U-87MG ATCC
[18] = tested on: U-87 MG; assay: Antiproliferative activity against human U87 cells assessed as inhibition of cell growth incubated for 24 hrs by MTT assay; type: functional, cell-based, U-87MG ATCC

CCCCCCCCCCCCCCNC(=O)C[C@H]1O[C@@H]2O[C@@]3(C)CC[C@H]4[C@H](C)CC[C@@H]([C@H]1C)[C@@]24OO3
IC50 [1]: 460 nM

C[C@H]1[C@@H](OCCNCCO[C@H]2O[C@@H]3O[C@@]4(C)CC[C@H]5[C@H](C)CC[C@@H]([C@H]2C)[C@@]35OO4)O[C@@H]2O[C@@]3(C)CC[C@H]4[C@H](C)CC[C@@H]1[C@@]24OO3
inhibition in vivo at 5 mg/kg [2]: 49.9% | IC50 [3]: 1160 nM

CCCCCCCCCCCCNC(=O)C[C@H]1O[C@@H]2O[C@@]3(C)CC[C@H]4[C@H](C)CC[C@@H]([C@H]1C)[C@@]24OO3
IC50 [4]: 1200 nM

C[C@H]1[C@@H](CCCOC(=O)NCCC[P+](c2ccccc2)(c2ccccc2)c2ccccc2)O[C@@H]2O[C@@]3(C)CC[C@H]4[C@H](C)CC[C@@H]1[C@@]24OO3
IC50 [5]: 820 nM | IC50 [6]: 820 nM | IC50 [7]: 820 nM | IC50 [8]: 820 nM

C[C@@H]1CC[C@H]2[C@@H](C)C(OCCNC(=O)c3ccc(COc4ccc(/C=C/S(=O)(=O)Nc5ccc(OC(F)(F)F)cc5)cc4)cc3)O[C@@H]3O[C@@]4(C)CC[C@@H]1[C@]32OO4 (stereo partly drawn)
IC50 [9]: 90 nM | IC50 [10]: 90 nM | IC50 at 72 h [11]: 90 nM | IC50 [12]: 90 nM | IC50 [13]: 90 nM | IC50 [14]: 90 nM | IC50 [15]: 90 nM

COC(=O)C(Cc1ccc(OC(=O)CCC(=O)O[C@@H]2O[C@@H]3O[C@@]4(C)CC[C@H]5[C@H](C)CC[C@@H]([C@H]2C)[C@@]35OO4)cc1)NC(=O)CCC(=O)O[C@@H]1O[C@@H]2O[C@@]3(C)CC[C@H]4[C@H](C)CC[C@@H]([C@H]1C)[C@@]24OO3 (stereo partly drawn)
IC50 [16]: 1760 nM

CCCCCCCCCCCC[C@@H](O)C[C@H]1O[C@@H]2O[C@@]3(C)CC[C@H]4[C@H](C)CC[C@@H]([C@H]1C)[C@@]24OO3
IC50 [4]: 4400 nM

C[C@@H]1CC[C@H]2[C@@H](C)C(OCCOc3ccc(/C=C/S(=O)(=O)Nc4ccc(OC(F)(F)F)cc4)cc3)O[C@@H]3O[C@@]4(C)CC[C@@H]1[C@]32OO4 (stereo partly drawn)
IC50 [9]: 50 nM | IC50 [10]: 50 nM | IC50 at 72 h [11]: 50 nM | IC50 [12]: 50 nM | IC50 [13]: 50 nM | IC50 [14]: 50 nM | IC50 [15]: 50 nM

C[C@H]1[C@H](OC(=O)CCC(=O)OCc2ccc(OC(=O)CCC(=O)O[C@@H]3O[C@@H]4O[C@@]5(C)CC[C@H]6[C@H](C)CC[C@@H]([C@H]3C)[C@@]46OO5)cc2)O[C@@H]2O[C@@]3(C)CC[C@H]4[C@H](C)CC[C@@H]1[C@@]24OO3
IC50 [16]: 50 nM

CCCCCCCCCCCC[C@H](O)C[C@H]1O[C@@H]2O[C@@]3(C)CC[C@H]4[C@H](C)CC[C@@H]([C@H]1C)[C@@]24OO3
IC50 [4]: 2800 nM

C[C@H]1[C@@H](OCCCN=C=S)O[C@@H]2O[C@@]3(C)CC[C@H]4[C@H](C)CC[C@@H]1[C@@]24OO3
IC50 [17]: 7350 nM | IC50 [18]: 7410 nM
